Reference: patent US7786141B2 (Vertex Pharmaceuticals Incorporated, priority 2004, dated 2010)

Tests used:
M4 muscarinic receptor = biological target: T1, M4 muscarinic receptor (Homo sapiens, UniProt P08173); test: Functional mobilization of intracellular calcium (FLIPR) in M4-CHO cells; type: cell-based; conditions: M4 receptor, calcium mobilization; for Emax: read-out: M4 Efficacy
T1 construct: expressed in transfected cells; host or cells: CHO (M4-CHO)
T1 sequence (P08173 1-479): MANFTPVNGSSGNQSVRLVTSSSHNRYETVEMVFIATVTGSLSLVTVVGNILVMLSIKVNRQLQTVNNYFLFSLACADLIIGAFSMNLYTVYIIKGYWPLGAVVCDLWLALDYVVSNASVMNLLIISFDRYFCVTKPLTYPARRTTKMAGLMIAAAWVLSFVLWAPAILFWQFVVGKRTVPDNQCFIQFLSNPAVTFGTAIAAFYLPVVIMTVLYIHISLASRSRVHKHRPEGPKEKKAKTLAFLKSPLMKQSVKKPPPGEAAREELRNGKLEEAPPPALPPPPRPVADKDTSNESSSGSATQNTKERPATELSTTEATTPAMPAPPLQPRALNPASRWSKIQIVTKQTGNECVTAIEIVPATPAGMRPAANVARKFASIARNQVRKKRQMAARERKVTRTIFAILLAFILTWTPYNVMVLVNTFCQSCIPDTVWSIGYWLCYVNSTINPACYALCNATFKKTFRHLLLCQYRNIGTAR
Outline: (§1)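 CHO cells stably expressing human M1 or M4 receptor were loaded with Fluo-3 AM (or Calcium 3 dye) in Hepes-buffered saline, pH 7.4, with 1 mM probenecid, 0.5% final DMSO. Agonist mode: compound added directly; antagonist mode: 15 min preincubation before carbachol at EC80. FLIPR fluorescence recorded 60 sec.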

M1 muscarinic receptor = biological target: T2, M1 muscarinic receptor (Homo sapiens, UniProt P11229); test: Functional mobilization of intracellular calcium (FLIPR) in M1-CHO cells; type: cell-based; conditions: M1 receptor, calcium mobilization; for Emax: read-out: M1 Efficacy
T2 construct: expressed in transfected cells; host or cells: CHO (M1-CHO)
T2 sequence (P11229 1-460): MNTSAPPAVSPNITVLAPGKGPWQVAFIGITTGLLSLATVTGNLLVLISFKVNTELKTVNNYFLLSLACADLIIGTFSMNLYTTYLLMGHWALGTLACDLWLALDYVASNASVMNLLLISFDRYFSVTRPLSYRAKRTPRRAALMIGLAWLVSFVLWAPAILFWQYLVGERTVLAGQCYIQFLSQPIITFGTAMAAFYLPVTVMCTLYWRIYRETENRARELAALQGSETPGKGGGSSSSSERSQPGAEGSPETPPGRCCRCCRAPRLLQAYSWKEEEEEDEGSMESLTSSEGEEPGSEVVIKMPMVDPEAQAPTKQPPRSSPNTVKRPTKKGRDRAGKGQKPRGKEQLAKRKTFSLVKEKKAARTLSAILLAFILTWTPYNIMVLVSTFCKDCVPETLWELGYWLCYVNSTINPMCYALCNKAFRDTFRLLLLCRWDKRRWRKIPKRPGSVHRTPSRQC
Outline: as §1

## CC(=O)NC1CC2(CCN(CC3CC4C=CC3C4)CC2)c2ccccc21 (centres unmarked) [compound 180]
M4 muscarinic receptor
  M4 Activity: xxx (activity was measured to be less than 0.1 μM)
  Emax: 65 to 85%
M1 muscarinic receptor
  M1 Activity: xxx (activity was measured to be less than 0.1 μM)
  Emax: 65 to 85%

## Clc1ccc2c(c1)C1(CCN([C@H]3C[C@@H]4CC[C@H]3C4)CC1)CO2 [compound 181]
M4 muscarinic receptor
  M4 Activity: x (activity was measured to be greater than 1.0 μM)
  Emax: 65 to 85%
M1 muscarinic receptor
  M1 Activity: xx (activity was measured to be between 0.1 μM and 1.0 μM)
  Emax: 65 to 85%

## COC(=O)N1CCC(CN2CCC3(CC2)C[C@H](NC(C)=O)c2ccccc23)CC1 [compound 182]
M4 muscarinic receptor
  M4 Activity: x (activity was measured to be greater than 1.0 μM)
  Emax: 65 to 85%
M1 muscarinic receptor
  M1 Activity: x (activity was measured to be greater than 1.0 μM)
  Emax: 65 to 85%

## Fc1ccc2c(c1)C1(CCN(CC3CC4C=CC3C4)CC1)CN2 (centres unmarked) [compound 183]
M4 muscarinic receptor
  M4 Activity: x (activity was measured to be greater than 1.0 μM)
  Emax: 65 to 85%
M1 muscarinic receptor
  M1 Activity: xx (activity was measured to be between 0.1 μM and 1.0 μM)
  Emax: 65 to 85%

## CC(=O)N[C@H]1CC2(CCN(CC3CCCCC3)CC2)c2ccccc21 [compound 184]
M4 muscarinic receptor
  M4 Activity: x (activity was measured to be greater than 1.0 μM)
  Emax: 65 to 85%
M1 muscarinic receptor
  M1 Activity: xx (activity was measured to be between 0.1 μM and 1.0 μM)
  Emax: > 85%

## CC(=O)NC1CC2(CCN(CC3CC4C=CC3C4)CC2)c2ccccc21 (centres unmarked) [compound 185]
M4 muscarinic receptor
  M4 Activity: x (activity was measured to be greater than 1.0 μM)
  M4 Efficacy: xx (efficacy was calculated to be between 85% and 65%)
M1 muscarinic receptor
  M1 Activity: x (activity was measured to be greater than 1.0 μM)
  M1 Efficacy: xx (efficacy was calculated to be between 85% and 65%)

## O=C(OCC(F)F)N1C2CCC1CC(N1CCC3(CC1)COc1ccc(F)cc13)C2 (centres unmarked) [compound 186]
M4 muscarinic receptor
  M4 Activity: x (activity was measured to be greater than 1.0 μM)
  Emax: 65 to 85%
M1 muscarinic receptor
  M1 Activity: xxx (activity was measured to be less than 0.1 μM)
  Emax: > 85%

## CC(=O)N1CC2(CCN(CC3CCCC3)CC2)c2cc(F)ccc21 [compound 187]
M4 muscarinic receptor
  M4 Activity: x (activity was measured to be greater than 1.0 μM)
  Emax: 65 to 85%
M1 muscarinic receptor
  M1 Activity: xx (activity was measured to be between 0.1 μM and 1.0 μM)
  Emax: 65 to 85%

## CN(C)C(=O)N1CC2(CCN(C3CC4CCC(C3)N4C(=O)O[C@@H]3CCOC3)CC2)c2cc(F)ccc21 (some centres unmarked) [compound 188]
M4 muscarinic receptor
  M4 Activity: x (activity was measured to be greater than 1.0 μM)
  Emax: 65 to 85%
M1 muscarinic receptor
  M1 Activity: x (activity was measured to be greater than 1.0 μM)
  Emax: < 65%

## CCOC(=O)N1C2CCC1CC(N1CCC3(CC1)CN(C(=O)c1cc(C)nn1C(C)(C)C)c1ccc(F)cc13)C2 (centres unmarked) [compound 189]
M4 muscarinic receptor
  M4 Activity: x (activity was measured to be greater than 1.0 μM)
  Emax: 65 to 85%
M1 muscarinic receptor
  M1 Activity: xxx (activity was measured to be less than 0.1 μM)
  Emax: 65 to 85%

## CC(=O)N(C)[C@H]1CC2(CCN(C[C@H]3C[C@H]4CC[C@H]3C4)CC2)c2ccccc21 [compound 190]
M4 muscarinic receptor
  M4 Activity: x (activity was measured to be greater than 1.0 μM)
  Emax: 65 to 85%
M1 muscarinic receptor
  M1 Activity: x (activity was measured to be greater than 1.0 μM)
  Emax: > 85%
